Peptide text beside a SMILES is read from it.
What was measured:
[1] = target: T1, ABCA1 (Mus musculus, UniProt P41233); assay: membrane ABCA1 stability testing in J774 cells; type: cell-based, murine; conditions: 4 hours
T1 construct: endogenous in cells; host or cells: J774 murine macrophage cells, ABCA1 induced with 8-Br-cAMP and AcLDL
Protocol: FIGS. 33A-33C illustrate the results of membrane ABCA1 stability testing in J774 Cells. J774 murine macrophage cells were seeded at 50,000 cells per well on 12-well plates and were allowed to grow to confluence. A vehicle solution of 0.1% BSA in serum-free DMEM was prepared for control wells. An ABCA1 induction solution of 0.1% BSA with 1 mM 8-Br-CAMP and 50 μg/mL AcLDL was prepared in serum-free DMEM and incubated on cells overnight at 37° C. to increase ABCA1 protein levels on the membrane. A solution of 10 μM peptide was prepared in serum-free DMEM and serially diluted 1:10 for 4 concentrations. ApoAI was prepared at a concentration of 300 nM. Peptides or ApoA1 were added to cells for 4 hours at 37° C. before isolating membrane protein and measuring membrane ABCA1 levels by western blot. Blots were quantified in ImageJ and the signal was normalized to membrane Na+/K+ pump levels. Signals were further normalized to the 18-hour cAMP treated group to determine percent (%) Membrane ABCA1 remaining.

[2] = tested on: ARPE-19 cells; assay: ARPE-19 cell viability assay (Cell Titer Glo); type: cell-based, human; conditions: 100 μM peptide, 1.5 hours
Protocol: ARPE-19 cells were seeded in 96-well plates at 25,000 cells/well and allowed to adhere to the plate surface for at least 24 hours. Peptides were diluted in serum-free DMEM: F12 to a final concentration of 100 μM. Cells were washed, then incubated in 100 μM peptide solution for 1.5 hours at 37° C. Plates were brought to room temperature for 30 minutes, then washed with DPBS. Cells were incubated in a 1:1 mixture of DPBS and Cell Titer Glo 2.0 Reagent for 10 minutes at room temperature, then cell luminescence was read on a plate reader. Viability values were background corrected, and 0% viability is determined by luminescence values of cells treated with 1% Triton-X-100. Data are presented as mean+SD over two separate runs.

[3] = target: T2, LDLR (Homo sapiens, UniProt P01130); assay: LDLR binding (SPR), high surfactant preparation; conditions: high surfactant preparation (HBS-P+), 1:1 binding model; read-out: binding KD to LDLR
Procedure, shortened: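 Surface plasmon resonance with recombinant LDLR amine-coupled to a CM5 chip at 1000 RU. Peptides, 5 μM top concentration then 1:3 dilutions (5 levels) in HBS-P+ with 1 mM CaCl2, injected 120 seconds at 30 μL/sec; multi-cycle kinetics fitted to a 1:1 binding model.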
Target sequence in this assay (P01130 22-860): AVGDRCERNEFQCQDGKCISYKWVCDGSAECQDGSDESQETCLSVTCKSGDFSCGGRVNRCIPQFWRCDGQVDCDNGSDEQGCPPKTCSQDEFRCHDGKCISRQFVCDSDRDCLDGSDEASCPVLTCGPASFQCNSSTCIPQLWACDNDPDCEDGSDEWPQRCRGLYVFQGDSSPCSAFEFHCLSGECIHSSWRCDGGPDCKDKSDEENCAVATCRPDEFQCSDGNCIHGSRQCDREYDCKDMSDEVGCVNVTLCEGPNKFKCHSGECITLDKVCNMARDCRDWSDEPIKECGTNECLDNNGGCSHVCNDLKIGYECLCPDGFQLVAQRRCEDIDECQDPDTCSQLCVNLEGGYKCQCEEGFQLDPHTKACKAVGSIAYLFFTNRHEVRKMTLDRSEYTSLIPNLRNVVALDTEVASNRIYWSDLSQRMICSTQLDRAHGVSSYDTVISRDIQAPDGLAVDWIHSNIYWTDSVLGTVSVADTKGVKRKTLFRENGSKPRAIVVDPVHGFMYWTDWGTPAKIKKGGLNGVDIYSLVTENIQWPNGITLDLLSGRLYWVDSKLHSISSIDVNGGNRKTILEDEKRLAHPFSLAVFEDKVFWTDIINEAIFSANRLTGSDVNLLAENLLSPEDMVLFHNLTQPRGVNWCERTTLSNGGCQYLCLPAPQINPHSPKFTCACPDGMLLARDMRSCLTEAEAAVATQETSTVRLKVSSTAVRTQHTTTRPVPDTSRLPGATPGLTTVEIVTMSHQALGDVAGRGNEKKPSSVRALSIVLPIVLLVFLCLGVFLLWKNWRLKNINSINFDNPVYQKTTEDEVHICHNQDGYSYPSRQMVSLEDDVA

[4] = target: T2, LDLR; assay: KD (µM)
From the text: Table printed on a drawing sheet, FIG. 23
Title: Buffer: HBS + 0.05% P20
Head of the field: KD (µM)
The patent's description of the figure: FIG. 23 is a table showing the binding kinetics results of LDLR binding assays (SPR), high surfactant preparation as described herein for select peptides shown in FIG. 1A-1I.
First copying reader's note: Right of three side-by-side panels of FIG. 23; the KD cells hold value ± error together.
Where the first naming reader finds the target: description_of_the_figure: FIG. 23 is a table showing the binding kinetics results of LDLR binding assays (SPR), high surfactant preparation
Target sequence in this assay (P01130 22-860 limits assumed): as the sequence (P01130 22-860) above

T1 sequence (P41233 whole entry): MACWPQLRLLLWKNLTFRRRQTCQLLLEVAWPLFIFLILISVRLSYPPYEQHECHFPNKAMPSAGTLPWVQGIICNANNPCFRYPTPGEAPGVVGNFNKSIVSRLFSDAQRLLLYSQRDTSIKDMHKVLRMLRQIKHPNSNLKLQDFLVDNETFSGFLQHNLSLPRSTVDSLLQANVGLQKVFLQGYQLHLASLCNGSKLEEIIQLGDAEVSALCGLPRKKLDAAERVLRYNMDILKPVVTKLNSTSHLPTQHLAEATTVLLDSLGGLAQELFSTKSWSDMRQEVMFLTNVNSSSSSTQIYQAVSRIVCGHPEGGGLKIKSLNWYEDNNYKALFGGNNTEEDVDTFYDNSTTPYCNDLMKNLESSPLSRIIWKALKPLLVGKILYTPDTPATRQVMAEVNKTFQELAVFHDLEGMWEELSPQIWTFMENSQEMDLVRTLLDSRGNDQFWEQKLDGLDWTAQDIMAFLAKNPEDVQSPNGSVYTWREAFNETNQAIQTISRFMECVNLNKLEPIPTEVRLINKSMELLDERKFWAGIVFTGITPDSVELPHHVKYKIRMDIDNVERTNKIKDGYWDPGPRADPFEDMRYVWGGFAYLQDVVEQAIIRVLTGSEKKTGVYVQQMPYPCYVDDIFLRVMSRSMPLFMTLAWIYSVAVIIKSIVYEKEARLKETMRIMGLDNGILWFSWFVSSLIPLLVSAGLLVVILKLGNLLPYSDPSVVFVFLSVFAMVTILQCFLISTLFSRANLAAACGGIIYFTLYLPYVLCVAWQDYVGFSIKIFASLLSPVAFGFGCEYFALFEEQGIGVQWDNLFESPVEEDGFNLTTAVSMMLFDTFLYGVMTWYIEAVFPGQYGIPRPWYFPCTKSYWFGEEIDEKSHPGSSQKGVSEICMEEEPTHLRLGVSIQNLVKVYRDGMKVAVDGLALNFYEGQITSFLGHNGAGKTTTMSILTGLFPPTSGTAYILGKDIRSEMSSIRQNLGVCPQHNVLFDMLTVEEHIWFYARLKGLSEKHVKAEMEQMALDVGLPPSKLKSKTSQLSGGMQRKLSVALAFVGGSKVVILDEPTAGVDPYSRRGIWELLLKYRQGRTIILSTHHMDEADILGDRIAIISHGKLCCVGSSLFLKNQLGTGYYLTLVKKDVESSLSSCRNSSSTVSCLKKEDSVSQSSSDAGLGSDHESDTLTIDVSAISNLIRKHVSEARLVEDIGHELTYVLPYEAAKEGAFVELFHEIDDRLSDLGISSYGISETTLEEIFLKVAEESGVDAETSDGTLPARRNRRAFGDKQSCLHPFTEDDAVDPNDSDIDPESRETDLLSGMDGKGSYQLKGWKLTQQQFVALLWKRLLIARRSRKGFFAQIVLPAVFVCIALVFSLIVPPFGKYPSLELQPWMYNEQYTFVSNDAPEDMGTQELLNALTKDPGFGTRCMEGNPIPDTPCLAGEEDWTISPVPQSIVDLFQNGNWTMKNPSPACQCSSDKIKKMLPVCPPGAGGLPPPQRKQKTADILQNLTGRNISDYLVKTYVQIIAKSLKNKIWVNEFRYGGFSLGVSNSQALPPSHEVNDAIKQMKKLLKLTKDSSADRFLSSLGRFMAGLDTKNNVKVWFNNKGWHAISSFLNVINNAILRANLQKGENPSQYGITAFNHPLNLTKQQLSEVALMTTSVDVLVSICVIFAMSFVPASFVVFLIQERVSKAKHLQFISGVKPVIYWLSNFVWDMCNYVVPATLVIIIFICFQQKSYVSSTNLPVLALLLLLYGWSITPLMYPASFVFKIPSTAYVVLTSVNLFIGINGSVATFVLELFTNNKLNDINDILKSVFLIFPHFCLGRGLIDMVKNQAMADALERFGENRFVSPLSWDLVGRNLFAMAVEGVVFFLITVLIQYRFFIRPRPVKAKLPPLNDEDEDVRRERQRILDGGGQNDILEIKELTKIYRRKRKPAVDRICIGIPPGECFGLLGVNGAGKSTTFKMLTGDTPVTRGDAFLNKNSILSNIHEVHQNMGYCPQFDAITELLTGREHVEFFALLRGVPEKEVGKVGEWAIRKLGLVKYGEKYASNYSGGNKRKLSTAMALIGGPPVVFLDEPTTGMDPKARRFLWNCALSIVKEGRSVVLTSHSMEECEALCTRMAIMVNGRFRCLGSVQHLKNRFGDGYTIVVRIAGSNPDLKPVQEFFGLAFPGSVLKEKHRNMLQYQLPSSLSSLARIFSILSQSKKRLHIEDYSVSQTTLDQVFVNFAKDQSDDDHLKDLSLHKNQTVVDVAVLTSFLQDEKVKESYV

| Molecule | membrane ABCA1 levels after washout of 8-Br-cAMP [1] | ARPE-19 cell viability [2] | Kd [3] | Kd [4] |
| --- | --- | --- | --- | --- |
| ApoA1: positive control protein ApoA1 (apolipoprotein A1) | preserved membrane ABCA1 levels | – | – | – |
| CC(C)C[C@H](NC(=O)[C@H](CC(=O)O)NC(=O)[C@H](CCCCN)NC(=O)CNC(=O)[C@H](Cc1ccc(O)cc1)NC(=O)[C@H](CC(=O)O)NC(=O)[C@@H](NC(=O)[C@@H](NC(=O)[C@@H](NC(=O)[C@H](CCC(N)=O)NC(=O)[C@H](Cc1ccccc1)NC(=O)[C@H](Cc1ccc(O)cc1)NC(=O)[C@H](CCC(N)=O)NC(=O)[C@H](CO)NC(=O)[C@@H](NC(=O)[C@H](CC(C)C)NC(=O)[C@H](CO)NC(=O)[C@H](CCCNC(=N)N)NC(=O)[C@H](CC(C)C)NC(=O)[C@H](CC(C)C)NC(=O)[C@H](CCCNC(=N)N)NC(=O)[C@H](CCCCN)NC(=O)[C@H](CCCNC(=N)N)NC(=O)[C@H](CC(C)C)NC(=O)[C@H](CCCCN)NC(=O)[C@H](CCCNC(=N)N)NC(=O)[C@H](CC(C)C)NC(=O)[C@@H](N)Cc1c[nH]cn1)C(C)C)[C@@H](C)O)C(C)C)[C@@H](C)O)C(=O)O [T-109] (H-HLRKLRKRLLRSLVSQYFQTVTDYGKDL-OH) | – | substantial change in viability | < 10000 nM | 1200 ± 90 nM |

From patent US20260115250A1, “METHODS OF TREATING AGE-RELATED MACULAR DEGENERATION” (Character Biosciences, Inc., priority 2022, published 2026)
